Results from patent publication US20100255086A1, “Method for oral mucosal absorption of acetyl salycylic acid” (priority 2009, published 2010).

Columns and labels:
[1] = long-term treatment; cited from earlier work
[2] = cited from earlier work
[3] = cited from earlier work; remark: listed apart in the source

Buccal absorption (normal buccal pH, no buffer added): 5%
absorbed (buccal) (pH of 2.5, buffer solution added): 70%
Structure (SMILES): CC(=O)Oc1ccccc1C(=O)O [aspirin, acetyl salicylic acid]
severe gastrointestinal complication [1]: up to 30%
acetyl salicylic acid reaching the stomach inactivated through deacetylation [2]: At least thirty two
solubility in water [3]: does not dissolve in water
